According to patent US12427175B2, “Fecal fungome and therapeutic efficacy of fecal microbiota transplantation” (priority 2018, dated 2025):
Entries after “also recorded” stand apart in the source; their conditions may differ.

Assays:
[1] = tested on: C. difficile; test: Antifungal (fluconazole) treatment before FMT in mice with di-colonisation of C. albicans and C. difficile; assay type: in vivo, mouse (C57BL/6); conditions: recipient mice colonized with C. albicans; fluconazole 0.5 mg/mL in drinking water 4 days before stool infusion
Protocol: Mice was initially colonized with C. albicans (2×10^8 cfu per mouse) after 3 days of antibiotic cocktail treatment in the drinking water, followed by 4 days of fluconazole treatment supplemented in the drinking water (0.5 mg/mL, Sigma). Then the mice were subjected to C. difficile administration (10^7 spores per mice) through gavage after a consecutive 1.5-day antibiotic cocktail- and 1.5-day free water-drinking. Human stool infusion was performed 2 days later after C. difficile gavage. Both C. difficile load and C. albicans load were enumerated by cultivation on Day 0 before FMT and Day 1 after FMT.
Mouse stool were collected both before and after stool infusion. Fecal C. difficile and C. albicans burdens on day 0 before and day 1 after stool infusion were measured by cultivation. Samples were diluted in PBS and respectively plated on taurocholate cycloserine cefoxitin fructose agar (TCCFA) for quantification of C. difficile burden, on Sabouraud dextrose agar (SDA) for quantification of C. albicans load. Stool samples prior to C. albicans colonization from antibiotic-treated mice were plated on SDA to ensure that mice were C. albicans culture negative.

[2] = tested on: C. albicans; test: Enumeration of C. albicans in feces of mice by cultivation on SDA; assay type: in vivo, mouse (C57BL/6); conditions: day 4 after administration of C. albicans, fluconazole in drinking water
Protocol: Mice was initially colonized with C. albicans (2×10^8 cfu per mouse) after 3 days of antibiotic cocktail treatment in the drinking water, followed by 4 days of fluconazole treatment supplemented in the drinking water (0.5 mg/mL, Sigma). […] Both C. difficile load and C. albicans load were enumerated by cultivation on Day 0 before FMT and Day 1 after FMT.
C. albicans (10231, purchased from ATCC, USA) was administered to mice (2×10^8 cfu per mouse) via gavage after 3-day antibiotic treatment or supplemented in donor stool slurry at the time of donor stool infusion.

[3] = tested on: gut mycobiota; test: Fungal ITS2 sequencing of fecal DNA (gut mycobiota diversity, richness, composition); assay type: in vivo, human
Protocol: (§1) Fecal DNA was isolated as described below. 100 mg fecal sample was pre-washed with 1 ml ddH2O and pelleted by centrifugation at 10,000×g for 1 minute. The fecal pellet was re-suspended in 800 μl TE buffer (pH 7.5), supplemented with 1.6 μl 2-Mercaptoethanol and 500 U lyticase (Sigma), and incubated at 37° C. for 60 min. The sample was then centrifuged at 10,000×g for 2 minutes and fecal DNA was subsequently extracted from the pellet using ZR Fecal DNA miniPrep kit (Zymo Research, Orange, CA) according to the protocol. Briefly, fecal pellet was added to the BashingBeadLysis Tube with 750 μl Lysis solution, and then processed at maximum speed for 10 minutes. The lysates were centrifuged at ≥10,000×g for 1 minute. The supernatant was transferred to a Zymo-Spin™ IV Spin Filter in a collection tube and centrifuged at 7,000×g for 1 minute. About 1,200 μl of fecal DNA binding buffer was added to the filtrate in the collection tube, followed by concentration and purification in a new filter tube. Finally, a total of 50 μl eluted DNA with a concentration at 20-100 ng/μl was prepared for each sample.
The final fecal DNA for fungal sequencing was amplified based upon ITS2 (Internal transcribed spacer 2) region using primers as below and PrimeSTAR HS DNA Polymerase kit (TaKaRa, Japan). The primer pairs are ITS2-F: 5′-[…]-3′, ITS2-R: 5′-[…]-3′ (SEQ ID NOs 1 and 2, respectively). ITS2 amplicons were generated with 38 cycles of 3-step PCR: 98° C. 10 s, 59° C. 10 s, and 72° C. 30 s. PCR samples were then sequenced on the Illumina MiSeq PE300 platform (2×300 bp, BGI, China), 151,524±97,694 (number±SD) clean sequences obtained on average (sequence statistics in Table 4).
Raw reads were filtered by SOAPnuke (v 1.5.3) (web site: soap.genomics.org.cn/) developed by BGI as follows: (i) adaptors removed, (ii) read removed if N base is more than 3% of the read, (iii) read removed if bases with quality low than 20 were more than 40% of read, (iv) all duplicates removed. Quality control and data analysis were further implemented in PIPITS (v 1.4.5) 31. Briefly, PIPITS_PREP prepares raw reads from Illumina MiSeq sequencers for ITS extraction; PIPITS_FUNITS extracts ITS2 from the reads; and PIPITS_PROCESS analyses the reads to produce operational taxonomic unit (OTU) abundance tables and the RDP taxonomic assignment table for downstream analysis. The quality trimmed and ITS2 extracted reads were aligned to fungi UNITE database exploiting RDP classifier 2.10 for taxonomic assignment to produce operational taxonomic unit (OTU) abundance table (based on sequence identity >97% identity) and phylotype abundance tables at different taxonomic levels, for downstream analysis.
The fungal OTU and phylptype abundance data were imported into R 3.2.3. Richness, diversity, and evenness calculation were performed using the estimated richness function of the phyloseq package. Spearman correlation and their significance were calculated using the cor and cor.test functions in R, respectively. […] Correlation plots were generated using the corrplot package in R. Heat maps were generated using the pheatmap package in R.
To compare differences in the configurations of fungal and bacterial microbiomes between CDI patients and healthy controls, between FMT responders and non-responders, between FMT treatment and vancomycin (STD) treatment, Lefse analyses were performed on the Huttenhower lab Galaxy server (web site: huttenhower.sph.harvard.edu/galaxy/) by importing the […] and bacterial relative abundance values and associated sample metadata, with FDR adjusted p value <0.05 considered significant and effect size calculated. […]

[4] = tested on: gut bacterial microbiota; test: Bacterial 16S rRNA sequencing of fecal DNA (bacterial microbiota diversity, richness); assay type: in vivo, human; conditions: responders
Protocol: as §1
The final fecal DNA samples were subject to bacterial 16S rRNA V4 region amplification and sequenced on the Illumina MiSeq PE250 platform (2×250 bp, BGI, China), 132,081±65,429 (number±SD) sequences obtained on average (sequence statistics in Table 5). […]

[5] = tested on: Clostridium difficile infection (CDI); test: Randomised controlled trial of FMT versus vancomycin (STD) in patients with CDI: treatment outcome; assay type: in vivo, human
Protocol: The current study was a sub-study from a randomised controlled trial (RCT) of FMT versus vancomycin (standard therapy, STD) for patients with CDI. Consecutive CDI subjects enrolled into this randomised controlled trial were invited to participate in a substudy of assessment of fecal microbiota. Patients were included if they had three or more loose or watery stools per day for at least two consecutive days or eight or more soft or loose stools in 48 hours and a positive stool test for C. difficile based on a two-step testing algorithm in our hospital, a positive GDH (Glutamate dehydrogenase) screening test followed by a positive polymerase chain reaction (PCR) test of C. difficile. A total of 31 subjects with CDI and 24 healthy household controls were recruited and stool samples at baseline were obtained for analyses of fungal and bacterial microbiomes. Among them, 24 CDI subjects consented to have stool samples collected serially after treatment for microbiome analysis. 16 CDI subjects were treated with FMT and 8 were treated with vancomycin, and they were followed up at baseline and at weeks 2, 4, 10 and 16 after treatment (FIG. 6). Subjects in the FMT group received 5 days of vancomycin followed by donor infused stool via nasojejunal route and those who had STD received oral vancomycin 500 mg orally four times per day for 10 days. A computer-generated randomization schedule was used to assign patients to the treatment sequences. All patients kept a stool diary and were questioned about stool frequency and consistency and medication use.
Treatment response was defined as an absence of diarrhea or persistent diarrhea that could be explained by other causes with a negative stool test for C. difficile toxin, while relapse was defined as diarrhea with a positive stool test for C. difficile toxin. […]
In subjects who received FMT, a nasoduodenal tube was inserted with radiology guidance. […] The tube was removed 30 minutes after the infusion, and patients were monitored for 2 hours. […]

SMILES | efficacy of FMT in clearing C. difficile infection after anti-fungal treatment [1] | C. albicans in feces by cultivation [2] | alterations in fungal richness and diversity during longitudinal follow-up ([3]; 8 CDI subjects treated with vancomycin) | CDI subjects with an increase in gut fungal richness after treatment ([3]; 11 out of 16 (FMT), 3 out of 8 (vancomycin)) | CDI subjects with an increase in gut fungal diversity after treatment ([3]; 13 out of 16 (FMT), 3 out of 8 (vancomycin)) | fungal genera enriched in treatment responders after treatment (LefSe) ([3]; all follow-up samples of treatment responders) | genus Candida in fungal composition after treatment ([3]; during follow-up across STD subjects) | relative abundance of fecal C. albicans after treatment ([3]; last follow-up vs baseline, vancomycin: STD responders) | change in bacterial diversity after treatment [4] | subjects who developed recurrence of CDI (non-responders) ([5]; 16 subjects on FMT, 8 on vancomycin) | subjects cured of CDI / symptom-free with negative stool C. difficile toxin at last follow-up (responders) ([5]; 16 subjects on FMT, 8 on vancomycin, median follow-up of 16 weeks) | Recurrence at week ([5]; individual CDI subject with recurrence, listed as STD)
OC(Cn1cncn1)(Cn1cncn1)c1ccc(F)cc1F [fluconazole] | restored the efficacy of FMT in clearing C. difficile infection | negative |  |  |  |  |  |  |  |  |  | 
CN[C@H](CC(C)C)C(=O)N[C@H]1C(=O)N[C@@H](CC(N)=O)C(=O)N[C@H]2C(=O)N[C@H]3C(=O)N[C@H](C(=O)N[C@H](C(=O)O)c4cc(O)cc(O)c4-c4cc3ccc4O)[C@H](O)c3ccc(c(Cl)c3)Oc3cc2cc(c3O[C@@H]2O[C@H](CO)[C@@H](O)[C@H](O)[C@H]2O[C@H]2C[C@](C)(N)[C@H](O)[C@H](C)O2)Oc2ccc(cc2Cl)[C@H]1O [vancomycin] |  |  | inconsistent alterations | 37.5% | 37.5% | Candida, Talaromyces, Erythrobasidium, Periconia, Stemphylium, Ganoderma | marked expansion | decrease | significant increase | three | 5 of the 8 and Five of the eight | week 12; also recorded: week 7; also recorded: week 5
